Assays:
Assay type in all cases: cell-based, human
RPMI-8226 = test: NCI 60 panel five-dose growth inhibition, Leukemia; details: RPMI-8226, Leukemia; for GI50: Homo sapiens
SF-268 = test: NCI 60 panel five-dose growth inhibition, CNS Cancer; details: SF-268, CNS Cancer; for GI50: Homo sapiens
786-0 = test: NCI 60 panel five-dose growth inhibition, Renal Cancer; details: 786-0, Renal Cancer; for GI50: Homo sapiens
HT29 = test: NCI 60 panel five-dose growth inhibition, Colon Cancer; details: for GI50: Homo sapiens, HT-29
MDA-MB-231/ATCC = test: NCI 60 panel five-dose growth inhibition, Breast Cancer; details: for GI50: Homo sapiens
SNB-19 = test: NCI 60 panel five-dose growth inhibition, CNS Cancer; details: SNB-19, CNS Cancer; for GI50: Homo sapiens
K-562 = test: NCI 60 panel five-dose growth inhibition, Leukemia; details: K-562, Leukemia; for GI50: Homo sapiens, K562
HCT-116 = test: NCI 60 panel five-dose growth inhibition, Colon Cancer; details: HCT-116, Colon Cancer; for GI50: Homo sapiens
IGROV1 = test: NCI 60 panel five-dose growth inhibition, Ovarian Cancer; details: for GI50: Homo sapiens, IGROV-1
SW-620 = test: NCI 60 panel five-dose growth inhibition, Colon Cancer; details: SW-620, Colon Cancer; for GI50: Homo sapiens
1-ICT-15 = test: as above; details: 1-ICT-15, Colon Cancer; for GI50: Homo sapiens
MCF7 = test: NCI 60 panel five-dose growth inhibition, Breast Cancer; details: for GI50: Homo sapiens
NCI-H460 = test: NCI 60 panel five-dose growth inhibition, Non-Small Cell Lung Cancer; details: for GI50: Homo sapiens
M14 = test: NCI 60 panel five-dose growth inhibition, Melanoma; details: for GI50: Homo sapiens
COLO 205 = test: NCI 60 panel five-dose growth inhibition, Colon Cancer; details: COLO 205, Colon Cancer; for GI50: Homo sapiens
SK-MEL-28 = test: NCI 60 panel five-dose growth inhibition, Melanoma; details: SK-MEL-28, Melanoma
5K-MEL-5 = test: NCI 60 panel five-dose growth inhibition, Melanoma; details: 5K-MEL-5, Melanoma; for GI50: Homo sapiens
HL-60(T13) = test: NCI 60 panel five-dose growth inhibition, Leukemia; details: Homo sapiens
CCRF-CEM = test: NCI 60 panel five-dose growth inhibition, Leukemia; details: for GI50: Homo sapiens
HOP-62 = test: NCI 60 panel five-dose growth inhibition, Non-Small Cell Lung Cancer; details: HOP-62, Non-Small Cell Lung Cancer; for GI50: Homo sapiens
MDA-MB-435 = test: NCI 60 panel five-dose growth inhibition, Melanoma; details: for GI50: Homo sapiens
CAKI-1 = test: NCI 60 panel five-dose growth inhibition, Renal Cancer; details: CAKI-1, Renal Cancer; for GI50: Homo sapiens
U0-31 = test: as above; details: U0-31, Renal Cancer; for GI50: Homo sapiens
OVCAR-4 = test: NCI 60 panel five-dose growth inhibition, Ovarian Cancer; details: OVCAR-4, Ovarian Cancer
KM12 = test: NCI 60 panel five-dose growth inhibition, Colon Cancer; details: for GI50: Homo sapiens
MOLT-4 = test: NCI 60 panel five-dose growth inhibition, Leukemia; details: MOLT-4, Leukemia; for GI50: Homo sapiens
A549/ATCC = test: NCI 60 panel five-dose growth inhibition, Non-Small Cell Lung Cancer; details: for GI50: Homo sapiens
NCI/ADR-RES = test: NCI 60 panel five-dose growth inhibition, Ovarian Cancer; details: for GI50: Homo sapiens
HS 5781 = test: NCI 60 panel five-dose growth inhibition, Breast Cancer; details: HS 5781, Breast Cancer; for GI50: Homo sapiens
PC-3 = test: NCI 60 panel five-dose growth inhibition, Prostate Cancer; details: PC-3, Prostate Cancer; for GI50: Homo sapiens
OVCA R-3 = test: NCI 60 panel five-dose growth inhibition, Ovarian Cancer; details: for GI50: Homo sapiens, OVCAR-3
ACHN = test: NCI 60 panel five-dose growth inhibition, Renal Cancer; details: for GI50: Homo sapiens
LOX IMVI = test: NCI 60 panel five-dose growth inhibition, Melanoma; details: for GI50: Homo sapiens
UACC-62 = test: NCI 60 panel five-dose growth inhibition, Melanoma; details: for GI50: Homo sapiens, UACC-62, UACC-62, Melanoma; for TGI: UACC-62, Melanoma
SK-MEL-2 = test: NCI 60 panel five-dose growth inhibition, Melanoma; details: SK-MEL-2, Melanoma; for GI50: Homo sapiens
NCI-H23 = test: NCI 60 panel five-dose growth inhibition, Non-Small Cell Lung Cancer; details: for GI50: Homo sapiens
HCC-2998 = test: NCI 60 panel five-dose growth inhibition, Colon Cancer; details: HCC-2998, Colon Cancer; for GI50: Homo sapiens

SMILES: COc1ccc(-c2n[nH]nc2-c2cc(OC)cc(OC)c2)cc1 [Example 5, 4-(3,5-dimethoxyphenyl)-5-(4-methoxyphenyl)-2H-1,2,3-triazole]
- GI50 (RPMI-8226): < 0.01 µM
- TGI (RPMI-8226): 24.6 µM
- GI50 (SF-268): < 0.01 µM
- TGI (SF-268): 90.0 µM
- TGI (786-0): 19.4 µM
- GI50 (786-0): < 0.01 µM
- TGI (HT29): 10.8 µM
- GI50 (HT29): < 0.01 µM
- TGI (MDA-MB-231/ATCC): >100 µM
- GI50 (MDA-MB-231/ATCC): < 0.01 µM
- GI50 (SNB-19): < 0.01 µM
- TGI (SNB-19): >100 µM
- GI50 (K-562): < 0.01 µM
- TGI (K-562): >100 µM
- TGI (HCT-116): >100 µM
- GI50 (HCT-116): < 0.01 µM
- TGI (IGROV1): 21.5 µM
- GI50 (IGROV1): < 0.01 µM
- GI50 (SW-620): < 0.01 µM
- TGI (SW-620): >100 µM
- TGI (1-ICT-15): >100 µM
- GI50 (1-ICT-15): < 0.01 µM
- TGI (MCF7): >100 µM
- GI50 (MCF7): < 0.01 µM
- TGI (NCI-H460): 10.9 µM
- GI50 (NCI-H460): < 0.01 µM
- TGI (M14): 23.0 µM
- GI50 (M14): < 0.01 µM
- TGI (COLO 205): 0.12 µM
- GI50 (COLO 205): 0.0292 µM
- TGI (SK-MEL-28): 60.7 µM
- TGI (5K-MEL-5): 0.02 µM
- GI50 (5K-MEL-5): < 0.01 µM
- GI50 (HL-60(T13)): < 0.01 µM
- TGI (CCRF-CEM): 46.3 µM
- GI50 (CCRF-CEM): < 0.01 µM
- TGI (HOP-62): 72.4 µM
- GI50 (HOP-62): < 0.01 µM
- GI50 (MDA-MB-435; MDA-MB-435, Melanoma): < 0.01 µM
- TGI (MDA-MB-435; MDA-MB-435, Melanoma): <0.01 µM
- TGI (MDA-MB-435; MDA-MB-435, as stated in text): less than 10 nM
- TGI (CAKI-1): >100 µM
- GI50 (CAKI-1): < 0.01 µM
- GI50 (U0-31): < 0.01 µM
- TGI (U0-31): 25.1 µM
- GI50 (OVCAR-4; Homo sapiens): < 0.01 µM
- TGI (OVCAR-4): >100 µM
- TGI (KM12): 0.05 µM
- GI50 (KM12): < 0.01 µM
- GI50 (MOLT-4): 0.012 µM
- TGI (MOLT-4): 16.1 µM
- TGI (A549/ATCC): 73.4 µM
- GI50 (A549/ATCC): < 0.01 µM
- TGI (NCI/ADR-RES): 17.5 µM
- GI50 (NCI/ADR-RES): < 0.01 µM
- TGI (HS 5781): >100 µM
- GI50 (HS 5781): < 0.01 µM
- GI50 (PC-3): < 0.01 µM
- TGI (PC-3): 35.2 µM
- GI50 (OVCA R-3; OVCA R-3, Ovarian Cancer): < 0.01 µM
- TGI (OVCA R-3; OVCA R-3, Ovarian Cancer): <0.01 µM
- TGI (OVCA R-3; OVCAR-3, as stated in text): less than 10 nM
- TGI (ACHN): 62.5 µM
- GI50 (ACHN): < 0.01 µM
- TGI (LOX IMVI): >100 µM
- GI50 (LOX IMVI): < 0.01 µM
- GI50 (UACC-62): > 1 µM
- TGI (UACC-62): >100 µM
- GI50 (SK-MEL-2): < 0.01 µM
- TGI (SK-MEL-2): 30.5 µM
- TGI (NCI-H23): 68.7 µM
- GI50 (NCI-H23): < 0.01 µM
- TGI (HCC-2998): 22.4 µM
- GI50 (HCC-2998): 0.0249 µM

SMILES: COc1cc(-c2n[nH]nc2-c2ccc3ccccc3n2)cc(OC)c1OC [Example 4, 2-(5-(3,4,5-trimethoxyphenyl)-2H-1,2,3-triazol-4-yl)quinoline]
- GI50 (RPMI-8226): 0.0368 µM
- TGI (RPMI-8226): 21.1 µM
- GI50 (SF-268): 0.177 µM
- TGI (SF-268): >100 µM
- TGI (786-0): >100 µM
- GI50 (786-0): 0.0153 µM
- TGI (HT29): 20.5 µM
- GI50 (HT29): 0.0476 µM
- TGI (MDA-MB-231/ATCC): >100 µM
- GI50 (MDA-MB-231/ATCC): 0.046 µM
- GI50 (SNB-19): 0.0369 µM
- TGI (SNB-19): >100 µM
- GI50 (K-562): < 0.01 µM
- TGI (K-562): >100 µM
- TGI (HCT-116): 1.47 µM
- GI50 (HCT-116): < 0.01 µM
- TGI (IGROV1): >100 µM
- GI50 (IGROV1): 0.0509 µM
- GI50 (SW-620): 0.0295 µM
- TGI (SW-620): >100 µM
- TGI (1-ICT-15): 5.13 µM
- GI50 (1-ICT-15): < 0.01 µM
- TGI (MCF7): >100 µM
- GI50 (MCF7): 0.0245 µM
- TGI (NCI-H460): >100 µM
- GI50 (NCI-H460): 0.0342 µM
- TGI (M14): >100 µM
- GI50 (M14): < 0.01 µM
- TGI (COLO 205): 0.64 µM
- GI50 (COLO 205): 0.149 µM
- TGI (5K-MEL-5): 0.32 µM
- GI50 (5K-MEL-5): 0.0267 µM
- GI50 (HL-60(T13)): 0.0227 µM
- TGI (CCRF-CEM): 21.8 µM
- GI50 (CCRF-CEM): 0.0319 µM
- TGI (HOP-62): >100 µM
- GI50 (HOP-62): 0.025 µM
- GI50 (MDA-MB-435; MDA-MB-435, Melanoma): < 0.01 µM
- TGI (MDA-MB-435; MDA-MB-435, Melanoma): 0.01 µM
- sensitivity to the growth inhibitory effects (MDA-MB-435; MDA-MB-435, in words): sensitive
- TGI (CAKI-1): >100 µM
- GI50 (CAKI-1): 0.0502 µM
- GI50 (U0-31): 0.02 µM
- TGI (U0-31): >100 µM
- TGI (OVCAR-4): >100 µM
- TGI (KM12): 23.8 µM
- GI50 (KM12): 0.0298 µM
- GI50 (MOLT-4): 0.0482 µM
- TGI (MOLT-4): 20.0 µM
- TGI (A549/ATCC): >100 µM
- GI50 (A549/ATCC): 0.0374 µM
- TGI (NCI/ADR-RES): 0.08 µM
- GI50 (NCI/ADR-RES): < 0.01 µM
- TGI (HS 5781): >100 µM
- GI50 (HS 5781): 0.0409 µM
- GI50 (PC-3): 0.0415 µM
- TGI (PC-3): >100 µM
- GI50 (OVCA R-3; OVCA R-3, Ovarian Cancer): 0.0244 µM
- TGI (OVCA R-3; OVCA R-3, Ovarian Cancer): >100 µM
- TGI (ACHN): >100 µM
- GI50 (ACHN): 0.145 µM
- TGI (LOX IMVI): >100 µM
- GI50 (LOX IMVI): 0.0755 µM
- GI50 (UACC-62): < 0.01 µM
- TGI (UACC-62): >100 µM
- GI50 (SK-MEL-2): 0.0555 µM
- TGI (SK-MEL-2): >100 µM
- TGI (NCI-H23): 27.9 µM
- GI50 (NCI-H23): 0.0377 µM
- TGI (HCC-2998): 11.4 µM
- GI50 (HCC-2998): 0.0459 µM
